Test results from US10689384B2, “Imidazo[1,2-a]quinoxalines and derivatives thereof for the treatment of cancer” (Universite de Montpellier, priority 2014, dated 2020).
pEC50, pIC50: −log10 of the molar value.

Assays:
[1] = test system: human cancer cell lines; test: In vitro cytotoxicity study, Summarized results 2 (cell line not given); format: cell-based; settings: Table 4, Summarized results 2, cell line not stated
Method: (§1) The goal of this protocol is to study the effects of the compounds on the proliferation of various human cancer cell lines in order to evaluate the EC50 and their activity in cellulo.
(§2) The cells are seeded the day before treatment in 96 well plates. Each compound concentration is tested in triplicate. A 96 well plate can contain 3 compounds.
(§3) Stock solutions of the tested compounds are prepared at 10 mM in 100% DMSO and stored at […].
(§4) The analysis is carried out by using the GraphPad PRISM 5.0 software.
(§5) Day 1: the cells are seeded one day before treatment with the compounds in 96 well plates. Cell suspensions for each cancer cell line are prepared with a specific density in a specific culture medium (see preceding table). Next, 100 µL of cell suspension is distributed per well (1×96 well plate per cell line).
(§6) Day 2: 24 hours later, the […] compounds or controls (DMSO) are added to the cells ([…] of a compound solution in its specific medium with a final DMSO concentration of 0.15%).
(§7) Each compound concentration is tested in triplicate (6 concentrations between 10^−9 M and 10^−5 M per compound). The cells are incubated at 37° C. for 72 hours with no new treatment.
(§8) Day 5: 15 minutes before incubation of the cells with MTT (3-[4,5-dimethylthiazol-2-yl]-2,5-diphenyltetrazolium bromide), 10% SDS is added to the control wells to obtain a final concentration of 1%. The positive control of inhibition of proliferation is 1% SDS.
(§9) Once the medium is removed, 100 µL of a solution of MTT in fresh medium is added to each well (10 μL of 10×MTT solution at 5 mg/mL in PBS +[…] of fresh medium) and the plates are incubated for 4 hours at 37° C.
(§10) The MTT reaction is quenched and the medium is homogenized by addition of […] of 10% SDS/0.01 M HCl solution placed in each well. The medium is incubated for 2 hours at 37° C. before measuring its absorbance. Absorbance is measured at 570 nm.

[2] = test system: A2058; test: In vitro cytotoxicity study, inhibition of cell growth (MTT); format: cell-based; settings: Homo sapiens, A2058, melanoma, 72 hours
Method: as §1, §2
(§11) Cell suspensions for each cancer cell line are prepared in culture medium with a specific density of the specific cell (see the following table). Then, 100 µL of cell suspension is spread per well (plate per one cell line).
as §3, §4, §5, §6, §7, §8, §9, §10

[3] = test system: A375; test: as above; format: cell-based; settings: Homo sapiens, A-375, A375, melanoma, 72 hours
Method: as §1, §2, §11, §3, §4, §5, §6, §7, §8, §9, §10

[4] = test system: AsPC-1; test: as above; format: cell-based; settings: Homo sapiens, ASPC1, AsPC-1, pancreas, 72 hours
Method: as §1, §2, §11, §3, §4, §5, §6, §7, §8, §9, §10

[5] = test system: BxPC3; test: as above; format: cell-based; settings: Homo sapiens, BXPC-3, BxPC3, pancreas, 72 hours
Method: as §1, §2, §11, §3, §4, §5, §6, §7, §8, §9, §10

[6] = test system: CFPAC-1; test: as above; format: cell-based; settings: Homo sapiens, CFPAC-1, pancreas, 72 hours
Method: as §1, §2, §11, §3, §4, §5, §6, §7, §8, §9, §10

[7] = test system: COLO-205; test: as above; format: cell-based; settings: Homo sapiens, COLO-205, colon, 72 hours
Method: as §1, §2, §11, §3, §4, §5, §6, §7, §8, §9, §10

[8] = test system: Calu-1; test: as above; format: cell-based; settings: Homo sapiens, Calu-1, lung, 72 hours
Method: as §1, §2, §11, §3, §4, §5, §6, §7, §8, §9, §10

[9] = test system: Capan-1; test: as above; format: cell-based; settings: Homo sapiens, Capan-1, pancreas, 72 hours
Method: as §1, §2, §11, §3, §4, §5, §6, §7, §8, §9, §10

[10] = test system: HepG2; test: as above; format: cell-based; settings: Homo sapiens, HepG2, liver, 72 hours
Method: as §1, §2, §11, §3, §4, §5, §6, §7, §8, §9, §10

[11] = test system: IPC298; test: as above; format: cell-based; settings: Homo sapiens, IPC-298, IPC298, melanoma, 72 hours
Method: as §1, §2, §11, §3, §4, §5, §6, §7, §8, §9, §10

[12] = test system: LoVo; test: as above; format: cell-based; settings: Homo sapiens, colon, 72 hours
Method: as §1, §2, §11, §3, §4, §5, §6, §7, §8, §9, §10

[13] = test system: MEWO; test: as above; format: cell-based; settings: Homo sapiens, melanoma, 72 hours
Method: as §1, §2, §11, §3, §4, §5, §6, §7, §8, §9, §10

[14] = test system: PC-3; test: as above; format: cell-based; settings: Homo sapiens, PC-3, prostate, 72 hours
Method: as §1, §2, §11, §3, §4, §5, §6, §7, §8, §9, §10

[15] = test system: PF382; test: as above; format: cell-based; settings: Homo sapiens, PF-382, PF382, lymphoid, 72 hours
Method: as §1, §2, §11, §3, §4, §5, §6, §7, §8, §9, §10

[16] = test system: T-47D; test: as above; format: cell-based; settings: Homo sapiens, T47D, breast, 72 hours
Method: as §1, §2, §11, §3, §4, §5, §6, §7, §8, §9, §10

[17] = target: T1, purified tubulin (Sus scrofa, UniProt P02550+P02554); test: Effect on the polymerization of purified tubulin (turbidimetry at 350 nm); format: biochemical, pig; settings: 2.4 μM tubulin, 37° C.
T1 construct: Tubulin is prepared from pig brain; from tissue; host or cells: pig brain
Method: FIG. 1. Study of the innovative effect of compounds of the selection patent on the polymerization of purified tubulin. This is a comparative study of the effect on the polymerization of purified tubulin by compounds of the selection patent compared to that of the compounds of the patent FR 2,921,927. Polymerized tubulin absorbs at 350 nm.
Tubulin is prepared from pig brain according to the purification process described by Williams and Lee (1982). Tubulin polymerization is monitored by turbidimetry at 350 nm with an MC2 spectrophotometer (Safas, Monaco) equipped with a heat-jacketed cuvette holder. The reaction mixture was prepared at 0° C., and contains PEM buffer, 25% glycerol (v/v), 1 mM GTP, and 2.4 μM tubulin. The GTP and the tubulin are added at the last minute. […] The same volume of DMSO alone was used as a negative control. The final volume of the sample is […]. The reaction is initiated by placing the cuvette in the cell compartment of the spectrophotometer thermostated at 37° C. Ice is added 45 minutes later to launch depolymerization in order to confirm the specificity of the signal.

T1 sequence (P02550 whole entry): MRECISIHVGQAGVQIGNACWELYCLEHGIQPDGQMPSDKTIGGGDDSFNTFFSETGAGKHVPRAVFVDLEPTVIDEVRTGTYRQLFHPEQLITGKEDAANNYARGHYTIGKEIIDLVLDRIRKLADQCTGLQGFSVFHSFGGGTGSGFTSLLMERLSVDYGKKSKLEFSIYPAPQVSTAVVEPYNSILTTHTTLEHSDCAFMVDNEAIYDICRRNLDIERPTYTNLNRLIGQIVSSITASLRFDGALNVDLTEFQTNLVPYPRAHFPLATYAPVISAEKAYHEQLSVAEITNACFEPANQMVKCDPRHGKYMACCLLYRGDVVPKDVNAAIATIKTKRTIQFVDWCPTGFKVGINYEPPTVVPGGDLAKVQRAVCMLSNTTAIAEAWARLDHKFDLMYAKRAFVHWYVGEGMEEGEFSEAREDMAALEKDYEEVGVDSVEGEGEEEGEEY
T1 sequence (P02554 whole entry): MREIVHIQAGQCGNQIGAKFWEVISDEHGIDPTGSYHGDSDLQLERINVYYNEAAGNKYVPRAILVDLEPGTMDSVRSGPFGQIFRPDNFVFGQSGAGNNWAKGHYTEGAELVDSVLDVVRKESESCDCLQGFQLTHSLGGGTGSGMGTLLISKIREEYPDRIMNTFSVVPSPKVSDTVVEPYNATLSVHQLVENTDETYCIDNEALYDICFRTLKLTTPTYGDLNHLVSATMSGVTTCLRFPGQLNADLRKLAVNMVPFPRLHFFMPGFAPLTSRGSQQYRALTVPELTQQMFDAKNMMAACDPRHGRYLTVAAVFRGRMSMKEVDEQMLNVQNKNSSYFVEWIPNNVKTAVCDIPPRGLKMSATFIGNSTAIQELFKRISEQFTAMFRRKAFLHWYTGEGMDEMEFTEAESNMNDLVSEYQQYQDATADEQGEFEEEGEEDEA

CNc1nc2ccc(C(F)(F)F)cc2n2c(-c3ccc(OC)c(OC)c3)cnc12 [EAPB 02203-8a, 1-(3,4-Dimethoxyphenyl)-N-methyl-8-(trifluoromethyl)imidazo[1,2-a]quinoxalin-4-amine]
pIC50 ([1]; Homo sapiens): < 5.00

COc1ccc(-c2cnc3c(N4CCN(C(=O)OC(C)(C)C)CC4)nc4ccccc4n23)cc1OC [EAPB 02213, tert-Butyl 4-(1-(3,4-dimethoxyphenyl)imidazo[1,2-a]quinoxalin-4-yl)piperazine-1-carboxylate]
pIC50 ([1]; Homo sapiens): < 5.00

CNc1nc2ccccc2n2ccnc12 [PED 26, N-Methylimidazo[1,2-a]quinoxalin-4-amine]
pIC50 ([1]; Homo sapiens): < 5.00

COc1ccc(-c2cnc3c(NC(C(=O)OC(C)(C)C)C(C)C)nc4ccccc4n23)cc1OC (centres unmarked) [EAPB 02220]
pIC50 ([1]; Homo sapiens): < 5.00

CNc1nc2ccccc2n2c(-c3ccc(OC)c(OC)c3)cnc12 [EAPB 02203, 1-(3,4-Dimethoxyphenyl)-N-methylimidazo[1,2-a]quinoxalin-4-amine]
pIC50 ([1]; Homo sapiens): 6.71

CNc1nc2ccc(OC(F)(F)F)cc2n2c(-c3ccc(O)c(O)c3)cnc12 [EAPB 02303-8b]
pIC50 ([1]; Homo sapiens): < 5.00

NCCNc1nc2ccccc2n2c(-c3ccc(O)c(O)c3)cnc12 [EAPB 02306s, 2-((1-(3,4-Dihydroxyphenyl)imidazo[1,2-a]quinoxalin-4-yl)amino)ethylammonium chloride]
pIC50 [1]: 5.77

CNc1nc2cc(OC(F)(F)F)ccc2n2c(-c3ccc(O)c(O)c3)cnc12 [EAPB 02303-7b, 4-(4-(Methylamino)-7-(trifluoromethoxy)imidazo[1,2-a]quinoxalin-1-yl)benzene-1,2-diol]
pIC50 ([1]; Homo sapiens): 6.70

COc1ccc(-c2cnc3c(NCCCNC(=O)OC(C)(C)C)nc4ccccc4n23)cc1OC [EAPB 02214, tert-Butyl (3-((1-(3,4-dimethoxyphenyl)imidazo[1,2-a]quinoxalin-4-yl)amino)propyl)carbamate]
pIC50 ([1]; Homo sapiens): < 5.00

NCCCNc1nc2ccccc2n2c(-c3ccc(O)c(O)c3)cnc12 [EAPB 02309, 4-(4-((3-Aminopropyl)amino)imidazo[1,2-a]quinoxalin-1-yl)benzene-1,2-diol]
pIC50 ([1]; Homo sapiens): 5.25

COc1ccc(-c2cnc3c(NCCNC(=O)OC(C)(C)C)nc4ccccc4n23)cc1OC [EAPB 02211, tert-Butyl (2-((1-(3,4-dimethoxyphenyl)imidazo[1,2-a]quinoxalin-4-yl)amino)ethyl)carbamate]
pIC50 ([1]; Homo sapiens): < 5.00

CNc1nc2ccccc2n2c(-c3ccc(O)c(O)c3)cnc12 [EAPB 02303, 1-(3,4-Dihydroxyphenyl)-N-methylimidazo[1,2-a]quinoxalin-4-amine]
pEC50 [2]: 8.40 | pEC50 [3]: 8.00 | pEC50 [4]: 6.02 | pEC50 [5]: 7.96 | pEC50 [6]: 7.92 | pEC50 [7]: 7.42 | pEC50 [8]: 8.40 | pEC50 [9]: 6.81 | pEC50 [10]: 6.61 | pEC50 [11]: 7.40 | pEC50 [12]: 7.35 | pEC50 [13]: 8.52 | pEC50 [14]: 7.92 | pEC50 [15]: 8.15 | pEC50 [16]: 7.89 | pIC50 ([1]; Homo sapiens): > 8.52 | Effect on polymerization of purified tubulin (absorbance level at 350 nm) [17]: leaves it unchanged

CNc1nc2ccc(C(F)(F)F)cc2n2c(-c3ccc(O)c(O)c3)cnc12 [EAPB 02303-8a, 4-(4-(Methylamino)-8-(trifluoromethyl)imidazo[1,2-a]quinoxalin-1-yl)benzene-1,2-diol]
pIC50 ([1]; Homo sapiens): < 5.00
